Bridge positions count the residues as written; N and C are the ends. Square brackets hold non-standard residues; d marks the D form. Peptide text beside a SMILES is read from it. Lys(iPr) = CC(C)NCCCC[C@H](N)C(=O)O; Orn(iPr) = CC(C)NCCC[C@H](N)C(=O)O; Dab = NCC[C@H](N)C(=O)O
How the values were obtained:
[1] = tested on: human red blood cells (hRBC); test: Hemolysis; assay type: cell-based; conditions: 100 µM, 20% hRBC, 1 h at 37°C
Description: The peptides were tested for their hemolytic activity against human red blood cells (hRBC). Fresh hRBC were washed four times with phosphate buffered saline (PBS) and centrifuged for 10 min at 3000 x g. Compounds (100 µM) were incubated with 20% hRBC (v/v) for 1 h at 37°C and shaking at 300 rpm. The final erythrocyte concentration was approximately 0.9 x 10^9 cells/mL. A value of 0% and 100% cell lysis, respectively, was determined by incubation of hRBC in the presence of PBS containing 0.001% acetic acid and 2.5% Triton X-100 in H2O respectively. The samples were centrifuged, the supernatants were 8-fold diluted in PBS buffer and the optical densities (OD) were measured at 540 nm. The 100% lyses value (OD540H2O) gave an OD540 of approximately 0.5-1.0. Percent hemolysis was calculated as follows: (OD540peptide/OD540H2O) x 100%. [formula]

[2] = Plasma stability, mouse plasma; assay type: in vitro ADME; conditions: mouse plasma, 37° C, last time point 1440 min
Description: (§1) The stability of the peptides in human and mouse plasma was determined by applying the following method: 346.5 µL/deep well of freshly thawed human plasma (Basler Blutspende-dienst) and mouse plasma (Harlan Sera-Lab, UK), respectively, were spiked with 3.5 µL/well of compound dissolved in DMSO/H2O (90/10 [v/v], 1 mM, triplicate) and incubated at 37° C. At t = 0, 15, 30, 60, 120, 240 and 1440 min aliquots of 50 µL were transferred to filtration plate wells containing 150 µL/well of 2% formic acid in acetonitrile. Following shaking for 2 min the occurred suspensions were filtrated by vacuum. 100 µL of each filtrate were transferred to a propylene microtiter plate and dried under N2. The residual solids were reconstituted by adding 100 µL/well of water/acetonitrile, 95/5 (v/v) + 0.2% formic acid and analyzed by LC/MS as follows: Column: Waters, XBridge C18, mobile phases: (A) water + 0.1% formic acid and (B) acetonitrile/water, 95/5 (v/v) + 0.1% formic acid, gradient: 5%-100% (B) in 1.8 minutes, electrospray ionization, MRM detection (triple quadrupole). The peak areas were determined and triplicate values are averaged. The stability is expressed in percent of the initial value at t = 0. (tx/t0 x 100). By using the TREND function of EXCEL (Microsoft Office 2003) T1/2 were determined.

[3] = Plasma stability, human plasma; assay type: in vitro ADME; conditions: human plasma, 37° C, last time point 1440 min
Description: as §1

[4] = target: T1, CXCR4 receptor (Homo sapiens, UniProt P61073); test: Chemotactic assay (cell migration assay): response of Namalwa cells to an SDF-1 gradient; assay type: cell-based
T1 construct: Namalwa cells (CXCR4 natively expressing non-adherent cells, ATCC CRL-1432); host or cells: Namalwa cells
Description: Namalwa cells (CXCR4 natively expressing non-adherent cells, ATCC CRL-1432) were cultured in RPMI1640 plus 10% FBS, and pen/strept. HELA cells were maintained in RPMI1640 plus 10% FBS, pen/strept and 2 mM L-glutamine. Cos-7 cells were grown in DMEM medium with […] glucose supplemented with 10% FCS, pen/strept and 2 mM L-glutamine. All cell lines were grown at 37 °C at 5% CO2. Cell media, media supplements, PBS-buffer, HEPES, antibiotic/antimycotic, pen/strept, non essential amino acid, L-glutamine, β-mercaptoethanol and sera were purchased from Gibco (Pailsey, UK). All fine chemicals were supplied by Merck (Darmstadt, Germany).
The chemotactic response of Namalwa cells (ATCC CRL-1432) to a gradient of stromal cell-derived factor 1α (SDF-1) was measured using a modified Boyden chamber chemotaxis system (ChemoTx; Neuroprobe). In this system, the upper chamber of each well is separated from the lower chamber containing the chemoattractant SDF-1 by a polycarbonate membrane (5µm pore size). A circular area of that membrane in the region that covers each lower well is enclosed by a hydrophobic mask to retain the cell suspension within this area. The system was prepared by loading the bottom wells with aliquots of […] chemotaxis medium (RPMI 1640 without Phenol red + 0.5% BSA) comprising either appropriate serial dilutions of peptides or no peptide at all in combination with SDF-1 (0.9 nM) or without the chemoattractant. The membrane was placed over the bottom wells, and aliquots of 50 µL of a suspension of Namalwa cells (3.6 x 10^6 cells/mL) in chemotaxis medium, premixed with chemotaxis medium comprising either appropriate serial dilutions of peptides or no peptide at all, was delivered onto each of the hydrophobically limited regions of the upper surface of the membrane. The cells were allowed to migrate into the bottom chamber for 5 h at 37 °C in 5% CO2. After this period, the membrane was removed and its topside was carefully wiped and washed with PBS to eliminate non-migrated cells. Migrated cells were transferred using a "funnel" adaptor to a receiving 96-well plate and the cell number was determined by using the CyQuant™ NF cell proliferation assay (Invitrogen) based on the measurement of cellular DNA content via fluorescent dye binding. Following the manufacturer's directions, 50 µL of CyQuant™ dye reagent/HBSS buffer (1/500 [v/v]) were added to each well of the above mentioned receiving 96-well plate. After incubation for 0.5 h at room temperature the plate was sealed and the fluorescence intensity of each sample was measured by using a Wallac 1420 VICTOR^2™ plate reader (PerkinElmer) with excitation at 485 nm and emission detection at 535 nm. Finally, the data were normalized by using the controls and IC50-values were determined using GraphPad Prism™ (GraphPad) by fitting a logarithmic curve to the averaged datapoints.

[5] = Drug loading calculations via maintenance dose rate (rate of infusion); conditions: CLiv-mouse values scaled by 0.127 (GFR human/GFR mouse)
Description: The drug load for an implant comprising a peptide of the invention was calculated following the basic principles in pharmacokinetics (see also J. Gabrielsson, D. Weiner, "Pharmacokinetics and Pharmaco-dynamics Data Analysis: Concepts and Applications", 4th edition, Swedish Pharmaceutical Press, Stockholm, Sweden, 2006) whereby the maintainance dose rate (rate of infusion, Rin) can be defined as the rate at which a drug is to be administered to reach a steady state of a certain dose in the plasma. The maintainance dose rate can be expressed using the correlation Rin [g/(h*kg)] = CLiv[L/(h*kg)] x Css,eff [g/L], wherein CLiv is the clearance (i.v. - admin.) and Css,eff the effective concentration of the drug in the plasma at steady state considering an efficacy margin A: Css,eff [g/L] = A x (IC50/fu) x MW [(mol/L)*(g/mol)]. Therefore, the total amount of a drug loaded into an implant providing for a constant effective concentration of that drug in the plasma for a certain period of time in a subject of a certain body weight can be calculated by applying the following correlation: Drugload [g/subject] = Rin [g/(h*kg)] x duration[h] x BW [kg/subject]. [formula]
Further pre-conditions are an efficacy margin of A = 3, a study duration of 672 h (28 days) and a body weight of a human suject of 70 kg. The glomerular filtration rate (GFR) which mainly influences the clearance of the peptides is highly dependent on the species. In general, the GFR of humans is averaged to be 107 mL/(h*kg) compared to the GFR of mouse being 840 mL/(h*kg). Therefore, the CLiv-mouse values indicated in Table 5b were allometrically scaled by 107 mL/(h*kg)/840 mL/(h*kg) = 0.127 before employed in the above described correlations.

T1 sequence (P61073 whole entry): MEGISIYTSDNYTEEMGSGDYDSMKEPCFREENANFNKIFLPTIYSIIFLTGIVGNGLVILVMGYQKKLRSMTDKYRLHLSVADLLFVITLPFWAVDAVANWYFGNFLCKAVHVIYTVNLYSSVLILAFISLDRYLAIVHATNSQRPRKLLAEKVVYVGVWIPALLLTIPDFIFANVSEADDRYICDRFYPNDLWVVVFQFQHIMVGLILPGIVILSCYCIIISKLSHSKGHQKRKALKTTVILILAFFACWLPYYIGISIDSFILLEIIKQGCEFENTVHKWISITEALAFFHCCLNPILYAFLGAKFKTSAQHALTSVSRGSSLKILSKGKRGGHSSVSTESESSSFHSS

SMILES | Hemolysis at 100 µM [1] [%] | Plasma stability mouse pl. T1/2 [2] [h] | Plasma stability human pl. T1/2 [3] [h] | IC50 [4] [nM] | CLiv, human (allometric scaled) [5] [mL/min/kg]
CC(C)NCCCC[C@@H]1NC(=O)[C@H](CCC(N)=O)NC(=O)[C@H](Cc2ccc(O)cc2)NC(=O)[C@@H]2CSSC[C@H](NC(=O)[C@H](C)NC(=O)[C@H](Cc3c[nH]cn3)NC(=O)[C@H](Cc3ccc(O)cc3)NC(=O)[C@@H]3CCCN3C(=O)[C@H]3CCCN3C1=O)C(=O)N[C@@H](CO)C(=O)N[C@@H](C)C(=O)N[C@H](Cc1ccc(O)cc1)C(=O)N[C@@H](CCN)C(=O)N[C@@H](CCCNC(=N)N)C(=O)N[C@@H](Cc1ccc(O)cc1)C(=O)N2 [Ex. 3, cyclo(-Tyr^1-His^2-Ala^3-Cys^4-Ser^5-Ala^6-^DTyr^7-Dab^8-Arg^9-Tyr^10-Cys^11-Tyr^12-Gln^13-Lys(iPr)^14-^DPro^15-Pro^16-), disulfide bond between Cys^4 and Cys^11] (cyclo(YHACSA[dY][Dab]RYCYQ[Lys(iPr)][dP]P); disulfide 4-11) | 1.0 | 24 | 24 | 0.11 ± 0.01 | 2.35
CC(C)NCCCC[C@@H]1NC(=O)[C@H](CCC(N)=O)NC(=O)[C@H](Cc2ccc(O)cc2)NC(=O)[C@@H]2CSSC[C@H](NC(=O)[C@H](Cc3ccc(O)cc3)NC(=O)[C@H](Cc3c[nH]cn3)NC(=O)[C@H](Cc3ccc(O)cc3)NC(=O)[C@@H]3CCCN3C(=O)[C@H]3CCCN3C1=O)C(=O)N[C@@H](CO)C(=O)N[C@@H](C)C(=O)N[C@H](Cc1ccc(O)cc1)C(=O)N[C@@H](CCCNC(C)C)C(=O)N[C@@H](CCCNC(=N)N)C(=O)N[C@@H](Cc1ccc(O)cc1)C(=O)N2 [Ex. 5, cyclo(-Tyr^1-His^2-Tyr^3-Cys^4-Ser^5-Ala^6-^DTyr^7-Orn(iPr)^8-Arg^9-Tyr^10-Cys^11-Tyr^12-Gln^13-Lys(iPr)^14-^DPro^15-Pro^16-), disulfide bond between Cys^4 and Cys^11] (cyclo(YHYCSA[dY][Orn(iPr)]RYCYQ[Lys(iPr)][dP]P); disulfide 4-11) | 3.5 | 24 | 24 | 0.43 ± 0.24 | 1.77

— patent EP2718307B1, “BETA-HAIRPIN PEPTIDOMIMETICS AS CXC4 ANTAGONISTS” (Polyphor AG, priority 2011, dated 2012)
